In patent US20190337899A1, “QUINOLINE SULFONAMIDES USEFUL TO TREAT DISEASE” (priority 2015, published 2019):

Experiments:
SH-SY5Y cells = assay: Cell rescue assay: protection against β-amyloid-induced cell toxicity; type: cell-based; conditions: Homo sapiens, 96 h, 7.5 uM compound, AB1-42 at 10 uM, 4 days, OD 490 nm, read-out: Cell Survival % (cell rescue)
Description: Protection against β-amyloid-induced cell toxicity. Chonpathompikunlert et al. Eu. J. Pharmacol. 2011, 650, 544-549. Human SH-SY5Y cells are suspended in media containing 2% FBS and 2X Gentamicin. Transfer 100 ul/well culture to 96-well plate (20,000 cells/well; passage #5) and incubate overnight. Prepare compound samples at 30 uM. Add 50 ul of the samples to the cells [[…]] and incubate 3 hours. Make stock of 40 uM AB1-42 peptide in assay media. Transfer 50 ul/well to cells/compounds in assay plate. The final assay volume is 200 ul/well, containing 2% FBS, 2× Gentamicin, 7.5 uM compound and AB1-42 at 10 uM. Incubate for 4 days then add 20 µl of Promega Substrate Cell Titer 96 Aqueous One Solution Reagent to each well. Incubate 37° C. and read OD at 490 nm. The results are summarized in Table 3, where A represents a value greater than 50% cell rescue, B represents a value greater than 10% and less than or equal to 50% cell rescue, and C represents a value greater than 1% and less than or equal to 10% cell rescue.

Ob/ob mice = assay: Effect of a SERCA agonist on the level of blood glucose; type: in vivo; conditions: Mus musculus, ip, 96 h, 50 mg/kg i.p. once a day for 5 days, fasting glucose 4 days after administration vs baseline, read-out: Glucose level reduction
Description: Ob/ob mice (10 weeks old, n=7) were intraperitoneally (i.p.) injected with 100 μL of a solution containing 0 (vehicle) or 50 mg/kg of a test compound once a day for a total of 5 days. Fasting glucose was measured at baseline and 4 days after the administration of the test compound. Glucose levels were measured in blood samples drawn from the tail vein using a handheld glucose sensor. Compound effects on blood glucose are shown in Table 5 where A represents a 10-20% reduction in blood glucose, B represents a 21-30% reduction in blood glucose, and C represents a greater than 30% reduction in blood glucose levels.

SERCA = molecular target: T1, SERCA (Homo sapiens, UniProt P16615); assay: Ca-ATPase assay (NADH-linked, enzyme-coupled ATPase assay); type: biochemical; conditions: microsomal preparations from HEK 293 cells, Vmax from Hill fit of ATPase calcium-dependence
T1 construct: microsomal preparations from HEK 293 cells; endogenous in cells; host or cells: HEK 293 cells (microsomal preparation)
T1 sequence (P16615 whole entry): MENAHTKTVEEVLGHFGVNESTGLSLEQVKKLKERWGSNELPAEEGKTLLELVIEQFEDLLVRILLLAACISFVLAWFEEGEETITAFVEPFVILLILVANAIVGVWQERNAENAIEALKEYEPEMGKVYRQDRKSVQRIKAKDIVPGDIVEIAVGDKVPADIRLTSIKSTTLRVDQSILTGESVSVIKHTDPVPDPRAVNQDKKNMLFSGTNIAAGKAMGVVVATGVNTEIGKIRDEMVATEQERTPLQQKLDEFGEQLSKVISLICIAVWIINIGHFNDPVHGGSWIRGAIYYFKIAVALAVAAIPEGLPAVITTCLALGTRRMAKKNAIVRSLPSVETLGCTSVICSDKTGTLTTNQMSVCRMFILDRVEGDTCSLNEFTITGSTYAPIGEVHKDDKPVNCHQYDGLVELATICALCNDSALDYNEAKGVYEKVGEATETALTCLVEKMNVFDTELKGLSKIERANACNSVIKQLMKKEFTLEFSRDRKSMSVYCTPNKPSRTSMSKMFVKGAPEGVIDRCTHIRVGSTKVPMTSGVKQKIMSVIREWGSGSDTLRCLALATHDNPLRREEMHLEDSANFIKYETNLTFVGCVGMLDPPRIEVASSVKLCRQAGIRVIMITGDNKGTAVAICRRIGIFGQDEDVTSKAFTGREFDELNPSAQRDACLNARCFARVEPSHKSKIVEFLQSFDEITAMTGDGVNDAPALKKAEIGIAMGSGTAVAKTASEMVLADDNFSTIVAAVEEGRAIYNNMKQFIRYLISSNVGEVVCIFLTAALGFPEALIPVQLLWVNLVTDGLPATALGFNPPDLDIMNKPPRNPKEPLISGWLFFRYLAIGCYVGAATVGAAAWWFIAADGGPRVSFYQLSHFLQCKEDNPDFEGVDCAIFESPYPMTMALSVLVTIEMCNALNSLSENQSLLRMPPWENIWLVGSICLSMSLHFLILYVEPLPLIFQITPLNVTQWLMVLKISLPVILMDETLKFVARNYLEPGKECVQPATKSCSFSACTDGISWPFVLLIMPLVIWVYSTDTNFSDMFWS
Description: A Ca-ATPase assay was performed using microsomal preparations from HEK 293 cells at a series of calcium concentrations corresponding to the physiological range, relative to controls. The ATP hydrolysis rate was measured over a range of calcium concentrations in the presence of test compounds using an NADH-linked, enzyme-coupled ATPase assay adapted for 96-well microplates, with Vmax determined by fitting the ATPase calcium-dependence to the Hill function. Each well contained 2 μg or 7 μg of SR vesicles (optimized for skeletal or cardiac SR, respectively), 50 mM MOPS (pH 7.0), 100 mM KCl, 5 mM MgCl2, 1 mM EGTA, 0.2 mM NADH, 1 mM phosphoenol pyruvate, 5 IU pyruvate kinase, 5 IU lactate dehydrogenase, and 3.5 μg/mL A23187 (a calcium ionophore). CaCl2 was added to set free [Ca^2+] to the specific values. The assay was started upon addition of ATP at a final concentration of 5 mM, and read in a SpectraMax Plus microplate spectrophotometer. The results are summarized in Table 4, where A represents an increase in SERCA Vmax greater than 50% and B represents a value greater than 10% and less than or equal to 50%.

CSM14.1 neuronal cells = assay: Cell survival assay (thapsigargin-treated CSM14.1 neuronal cells, CellTiter-Glo); type: cell-based; conditions: compound 2 hrs before about 15 μM thapsigargin, overnight, CellTiter-Glo luminescence
Description: CSM14.1 neuronal cells were maintained in Complete Medium at 32 ° C.; wherein the Complete Medium contained Dulbecco's modified eagle medium (DMEM) with 10% fetal bovine serum (FSB), 1% L-glutamine, 100 IU/mL penicillin, and 100 μg/mL streptomycin. The cells were recovered from cultures by trypsinization and then seeded in 384 well plates (Greiner #781098) at a concentration of 1,000 cells/well in 20 μL of DMEM Assay Medium, wherein the DMEM Assay Medium contained 2% FBS, 100 IU/mL penicillin, and 100 μg/mL streptomycin. Seeding was performed using a MultiDrop Combi reagent broadcaster. The plates were incubated overnight at 32° C. A test compound was prepared by 2-fold serial dilution in 100% DMSO using a BIOMEK® 2000 liquid handler (Beckman Coulter). A dose-response curve containing 10 concentrations of the test compound was obtained. Using a BIOMEK® FX liquid handler (Beckman Coulter), 2.5 μL of the test compound was transferred from the 100% DMSO serial dilution plate to an intermediate plate containing 47.5 μL of DMEM Assay Medium containing 2% FBS, 100 IU/mL penicillin, and 100 μg/mL streptomycin and mixed. To reduce or eliminate the interference from the compound's precipitation, 6 μL of the diluted compound was immediately transferred to the assay plate to achieve a high compound concentration of 100 μM in 99% DMEM Assay Medium and 1% DMSO. After the assay plates were incubated for 2 hrs, 4 μL of 112.5 μM thapsigargin (TG) (DMSO stock diluted into Assay TC Medium) was dispensed into each testing well with a MultiDrop Combi reagent broadcaster for a final concentration of about 15 μM TG. The tissue culture media (4 μL) containing vehicle only was transferred manually to each control cell using a 16 channel electronic pipette. After the plates were incubated overnight (about 16 to 24 hrs), CELLTITER-GLO® (Promega) (16 μL) was added to all wells and luminescence was measured. High luminescence indicates cell survival. The biological results are summarized in Table 1 where A represents a cell viability EC50 less than 10 μM and B represents a value greater than or equal to 10 μM and less than 20 μM.

HEK293 cells; N2a cells = assay: Cell rescue assay: protection against thapsigargin (TG)-induced cell-death (AlamarBlue); type: cell-based, Human (HEK293); Mouse (N2a); conditions: Homo sapiens; compound at 20 μM, 2 hrs before thapsigargin (15 μM HEK293, 1 μM N2a), 24 hrs, viability as % RFU of control; read-out: Cell Survival %
Description: Protection against Thapsigargin (TG)-induced Cell-death. Human embryonic kidney (HEK293) cells were grown in Dulbecco's Modified Eagle's Medium (DMEM) with 10% FBS and 1% antibiotic antimycotic solution (ABAM). Mouse neuroblastoma (N2a) cells were grown in 1:1 DMIEM:OPTI-MIEM® with 5% FBS and 1% ABAM. All cells were grown in 10% CO2 in a humidified environment of the incubator. Cells grown in 96-well plates were exposed to a test compound (20 μM) for 2 hrs before addition of thapsigargin (15 μM for HEK293 cells and 1 μM for N2a cells) to induce ER stress. After incubation in cell-culture incubator for 24 hrs, ALAMARBLUE® regent (10% v/v) was added to the wells. Fluorescence reading was taken 2 hrs after the addition of the ALAMARBLUE® regent. Cell-viability was calculated as a percentage of relative fluorescence unit (RFU) compared to control. […] The biological results are summarized in Table 2, where each compound was tested at 20 μM and where A represents a viability greater than 50%, B represents a viability greather than 10% and less than or equal to 50%, C represents a value equal to or below 10% and greater than 1%.

Structure (SMILES)	viability at 7.5 µM (SH-SY5Y cells)	inhibition in vivo at 50 mg/kg (Ob/ob mice)	SERCA Vmax Increase (SERCA)	EC50 (CSM14.1 neuronal cells)	viability at 20 µM (HEK293 cells; N2a cells)
Cc1ccc2cccc(NS(=O)(=O)c3ccc(OC(C)C)cc3)c2n1 [D1, 4-Isopropoxy-N-(2-methylquinolin-8-yl)benzenesulfonamide]	> 50%	> 30%	B (B represents a value greater than 10% and less than or equal to 50%)	< 10 µM	> 50%
CCOc1ccc(S(=O)(=O)Nc2cccc3ccc(C)nc23)cc1 [D2, 4-Ethoxy-N-(2-methylquinolin-8-yl)benzenesulfonamide]	> 50%	> 30%	A (A represents an increase in SERCA Vmax greater than 50%)	< 10 µM	10 to 50%
COc1c(C)cccc1S(=O)(=O)Nc1cccc2ccc(C)nc12 [D3, 2-Methoxy-3-methyl-N-(2-methylquinolin-8-yl)benzenesulfonamide]	10 to 50%	10 to 20%	A (A represents an increase in SERCA Vmax greater than 50%)	10 to 20 µM	10 to 50%
Cc1ccc2cccc(NS(=O)(=O)c3cc4ccccc4s3)c2n1 [D4, N-(2-Methylquinolin-8-yl)benzo[b]thiophene-2-sulfonamide]	10 to 50%	> 30%	B (B represents a value greater than 10% and less than or equal to 50%)	10 to 20 µM	> 50%
Cc1ccc2cccc(NS(=O)(=O)c3ccc(C(F)(F)F)cc3)c2n1 [D5, 4-Trifluoromethyl-N-(2-methylquinolin-8-yl)benzenesulfonamide]	10 to 50%	21 to 30%	A (A represents an increase in SERCA Vmax greater than 50%)	< 10 µM	> 50%
Cc1ccc2cccc(NS(=O)(=O)c3ccc(C#N)cc3)c2n1 [D6, 4-Cyano-N-(2-methylquinolin-8-yl)benzenesulfonamide]	1 to 10%	21 to 30%	A (A represents an increase in SERCA Vmax greater than 50%)	10 to 20 µM	10 to 50%
Cc1ccc2cccc(NS(=O)(=O)c3ccc(N(C)C)cc3)c2n1 [D7, 4-Dimethylamino-N-(2-methylquinolin-8-yl)benzenesulfonamide]	1 to 10%	21 to 30%	B (B represents a value greater than 10% and less than or equal to 50%)	10 to 20 µM	10 to 50%
Cc1ccc2cccc(NS(=O)(=O)c3cc(Br)cs3)c2n1 [D8, 4-Bromo-N-(2-methylquinolin-8-yl)thiophene-2-sulfonamide]	10 to 50%	> 30%	B (B represents a value greater than 10% and less than or equal to 50%)	10 to 20 µM	> 50%
Cc1ccc2cccc(NS(=O)(=O)c3ccc(C)o3)c2n1 [D9, 5-Methyl-N-(2-methylquinolin-8-yl)furan-2-sulfonamide]	10 to 50%	10 to 20%	B (B represents a value greater than 10% and less than or equal to 50%)	10 to 20 µM	10 to 50%
Cc1ccc2cccc(NS(=O)(=O)c3ccc(C(C)(C)C)cc3)c2n1 [D10, 4-(tent-Butyl)-N-(2-methylquinolin-8-yl)benzenesulfonamide]	10 to 50%	21 to 30%	A (A represents an increase in SERCA Vmax greater than 50%)	10 to 20 µM	10 to 50%
